Experiment: Inhibition of Wistar rat intestinal maltase assessed as inhibition of D-glucose release after 30 mins by spectrophotometry

OC[C@@H]1N[C@@H](CCCCc2ccc(O)cc2)[C@H](O)[C@H]1O
IC50: 170 nM

— BindingDB's records for doi:10.1016/j.bmcl.2014.06.001 (Tohoku Pharmaceutical University, 2014)
